This note sets out measurements from patent publication US20070225245A1, “Viral vector driven mutant bacterial cytosine deaminase gene and uses thereof” (priority 1998, published 2007).

For assay [1], the system named is Intracranial D54MG gliomas. The assay can be described thus: Survival, intracranial glioma, HSV and 5-FC. The conditions noted are these: saline and 5-FC. Type of assay: in vivo, athymic nude mice. Here is the method: Two days later, mice were begun on twice daily intraperitoneal injections of saline (1 ml) or 5-FC (500 mg/kg). Mice were followed for survival.
Studies were undertaken to determine the efficacy of the HSV construct, M012, in in vivo murine glioma models. […] The median survival of animals receiving saline plus 5-FC was 34 days. In a similar study with the D54MG intracranial model, median survival of mice injected intratumorally with M012 and administered 5-FC was 40 days, compared to 27 days with M012 plus saline and 19 days with saline and 5-FC (FIG. 14).

A further assay concerns Panc2.03 xenografts. The assay can be described thus: Subcutaneous human pancreatic tumor xenograft, tumor growth. It is filed as in vivo, athymic nude mice. The conditions noted are these: PBS plus 5-FC. The method, then: Animals were injected i.t. with 1×10^7 TCID50 of AdbCD-D314A or 1×10^8 TCID50 of AdbCDwt on Days 0, 7, and 14. 5-FC was administered i.p. at 400 mg/kg qd×5/week for 3 weeks starting on Day 1. Data points represent the mean change in tumor surface area relative to Day 0 for each group of animals.
To compare anti-tumor effects of AdbCD-D314A and AdbCDwt mediated molecular chemotherapy on established solid tumors, 7×10^6 Panc2.03 pancreatic cancer cells were injected s.c. into female athymic nude mice. Treatment was started 11 days post-tumor cell injection at the time of established tumor growth (tumors were 6-8 mm in diameter), noted as Day 0. Animals were randomly divided into groups receiving different treatments: 1) AdbCDwt plus 5-FC; 2) AdbCD-D314A plus 5-FC; 3) AdbCD-D314A plus PBS; 4) PBS plus 5-FC. Mice were injected i.t. with 1×10^8 TCID50 per tumor AdbCDwt or with 1×10^7 TCID50 AdbCD-D314A on Days 0, 7, and 14. Three groups of mice (# 1, 2 and 4) received 5-FC i.p. at 400 mg/kg on Days 1 to 5, 8 to 12, and 15 to 19.

A further assay relates to MIA PaCa-2 xenografts. The description is as above. Type of assay: in vivo, athymic nude mice. The method, then: Treatment was started at the time of established tumor growth (Day 0 equal to 17 days after tumor cell injection). Animals were injected i.t. with PBS or 5×10^7 TCID50 of AdbCD-D314A on Days 0, 7, and 14, and then irradiated with 2 Gy on Days 1, 8 and 15 using a ^60Co gamma irradiator, and 400 mg/kg of 5-FC was i.p. administered at qd×5/week for 3 weeks starting on Day 1. Data points represent the mean change in tumor surface area relative to Day 0 for each group of animals.
To evaluate in vivo therapeutic efficacy of the combination of AdbCD-D314A/5-FC and radiation treatment, 16×10^6 MIA PaCa-2 tumor cells were resuspended 1:1 (v/v) in Matrigel (Becton Dickinson) and injected s.c. into female athymic nude mice. Treatment was started 17 days post-tumor cell injection at the time of established tumor growth, noted as Day 0. Animals were randomly divided into groups receiving different treatments: 1) AdbCD-D314A plus 5-FC; 2) AdbCD-D314A plus 5-FC in combination with radiation; 3) PBS plus 5-FC in combination with radiation; 4) PBS plus 5-FC. Two groups of mice (# 1 and 2) were injected i.t. with 5×10^7 TCID50 AdbCD-D314A on Days 0, 7, and 14. […] Tumor size was monitored twice a week using digital Vernier calipers. Tumor surface areas were calculated as width×length (mm^2).

Assay [2] has as its system intracranial U251MG gliomas. In words: Survival, intracranial glioma, intratumoral Ad and systemic 5-FC. It is filed as in vivo, SCID mice. The conditions noted are these: no virus/5-FC. The method, then:
U87MG and D54MG cells (5×10^5) were stereotactically injected into the right frontal cortex of SCID mice. Tumors were established for 5 days before intratumoral injection of AdCMVCD (10^8 or 10^9 pfu/mouse). Mice were then treated IP with 5-FC (500 mg/kg bid) on days 2-9 post infection and monitored for survival. Kaplan-Meier survival curves and median and 20% survival values were calculated by standard methods.
Additional experiments were performed on intracranial tumors derived from all three glioma models. […] Similar results were obtained with SCID mice bearing intracranial U87MG gliomas (AdE1ACD/5-FC 84 days, AdE1ACD/saline 49 days, no virus/5-FC 57 days, p<0.01; Table II and Table 12).

For a further assay, the system named is ASPC-1. In words: 5-FU cytotoxicity IC50. Type of assay: cell-based. The following applies: Homo sapiens, ASPC1. The method, then:
A two factor analysis of variance with interaction was used to assess the effects of AdCMVLuc and AdCMVLuc+Fab-FGF2 MOI on RLU for each of the cell types individually. Due to the nonconstant variability, the logarithm of RLU was analyzed. This transformation stabilized the variability and normalized the errors. A three-factor with interaction analysis of variance was used to assess the effects of MOI, virus type and day on the number of cells per well. Due to the nonconstant variability, the logarithm of cells per well was analyzed. This transformation stabilized the variability and normalized the errors. Global comparisons were done at the 5% significance level and all pairwise comparisons were done at the 1% significance level. A nonlinear model was used to calculate the 5-FU IC50 for each cell type individually. The nonlinear model is given by: number of cells=trough+(peak-trough)/(1+dose/IC50). To assess the correlation of the number of cells per well with 5-FU production, a simple linear regression was done modeling the logarithm of cells per well as a function of percent 5-FU production for each cell and virus type combination individually. Kaplan-Meier estimates on the difference in time to tumor size doubling was used to assess the difference in tumor growth in animals treated with AdCMVCD or AdCMVCD+Fab′-FGF2 plus 5-FC and radiation.
To determine the relative sensitivity of several hepatobiliary cell lines to 5-FU, the concentration of 5-FU which inhibited cellular growth by 50% (IC50) was determined. Characterization of this information is particularly relevant to the CD/5-FC toxin gene prodrug system, as 5-FU is the toxic metabolic product of cytosine deaminase enzymatic conversion of 5-FC.

For assay [3], the system named is human cell lines derived from gliomas, prostate, colon, and pancreatic carcinomas. In words: 5-FU toxicity, panel of cell lines. Type of assay: cell-based. The following applies: range over 12 cell lines. The method, then: Tumor cells (5×10^4) were plated in 96 well plates and allowed to adhere overnight. Cells were then incubated continuously in the presence of increasing concentrations of 5-FU (0-200 μg/ml) and assayed for toxicity using an MTS assay (Promega, Madison Wis.) after 5-days. ICx values were calculated as previously described. U251MG glioma cells were as sensitive to 5-FU as LS174T and WiDR colon carcinoma cells, while D54MG, U87MG and U118MG glioma cells and AsPC-1 pancreatic carcinoma cells were 3-fold less sensitive (Table 2).

Converted amounts (≈) assume the structure as drawn.

With `Nc1nc(=O)[nH]cc1F` [5-FC, 5-fluorocytosine], the median survival was 19 days in assay [1] and 23 days in assay [2]. For the same molecule, the “mean time to tumor doubling” value turned out to be 22 days in the assay with Panc2.03 xenografts, 14 days in the assay with MIA PaCa-2 xenografts (PBS plus 5-FC) and 30 days in the assay on MIA PaCa-2 xenografts (PBS plus 5-FC in combination with radiation).
The term IC50 denotes the point on the concentration scale where inhibition reaches its midpoint. Consider `O=c1[nH]cc(F)c(=O)[nH]1` [5-FU, 5-fluorouracil], for which the IC50 is 0.635 µg/mL in the assay on ASPC-1 and 0.04 to 4.97 µg/mL (≈ 0.308 to 38.2 µM) in assay [3].
